Experiment [1] addresses T1, DNA repair protein RAD52 homolog (Homo sapiens, UniProt P43351).
T1 sequence (P43351 whole entry): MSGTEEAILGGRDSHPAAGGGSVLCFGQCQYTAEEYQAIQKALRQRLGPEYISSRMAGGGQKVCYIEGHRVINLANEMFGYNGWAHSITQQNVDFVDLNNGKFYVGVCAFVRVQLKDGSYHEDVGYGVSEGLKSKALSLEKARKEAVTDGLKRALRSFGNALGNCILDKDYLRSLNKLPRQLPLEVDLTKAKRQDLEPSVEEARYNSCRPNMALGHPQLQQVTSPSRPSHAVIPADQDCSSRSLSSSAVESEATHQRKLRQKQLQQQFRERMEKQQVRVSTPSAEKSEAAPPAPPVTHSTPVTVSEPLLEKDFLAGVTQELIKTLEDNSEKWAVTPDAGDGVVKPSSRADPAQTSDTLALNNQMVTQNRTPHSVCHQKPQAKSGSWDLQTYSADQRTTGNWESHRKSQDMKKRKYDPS
In kind it is functional, biochemical.

Experiment [2] addresses Mitogen-activated protein kinase 10 (Homo sapiens, UniProt P53779). The experiment in a line: Dose response biochemical screening assay for inhibitors of c-Jun N-Terminal Kinase 3 (JNK3). [Related pubchem assays: 746 ].
The nature of experiment [3]: P. falciparum Dd2 growth inhibitors, dose response, SYBR Green, cherry-picked samples (AID 1159567). In kind it is functional, cell-based.
A short description of experiment [4]: Dd2 malaria parasite growth inhibition potency – SYBR Green, dry powder samples, dose response (AID 1159566).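 Note: potency for growth inhibition with lower SYBR green DNA signal.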 In kind it is functional, cell-based.
Experiment [5] is described as follows: growth inhibition of yeast DHODH-expressing 3D7 parasites – SYBR Green, dry powder samples, dose response (AID 1159570).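 Note: parasite growth measured after 72 hours of compound exposure.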 In kind it is functional, cell-based.
Experiment [6] in a line: toxicity to human HepG2 hepatoma cells – cell-based, plate reader, dry powder samples, cytotoxicity control, dose response (AID 1159569).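 Note: inhibitor potency with signal falling toward the positive control level.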 It is filed as functional.
A short description of experiment [7]: growth inhibition of PfATP4-mutant resistant parasites – NITD609-resistant line, SYBR Green, dry powder, dose response (AID 1159571).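 Note: parasites synchronized at ring stage by sorbitol before testing.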 It is filed as functional, cell-based.
The target in another experiment is Steroidogenic factor 1 (Homo sapiens, UniProt Q13285). The experiment in a line: Counterscreen for inverse agonists of the liver receptor homolog-1 (LRH-1; NR5A2): Luminescence-based cell-based high throughput dose response assay to identify inverse agonists of the Steroidogenic Factor 1 Nuclear Receptor (SF1; NR5A1). In kind it is functional. A general note: A counterscreen serves to expose hits that act by an unwanted route or on another target.
Sequence of Steroidogenic factor 1 (Q13285 whole entry): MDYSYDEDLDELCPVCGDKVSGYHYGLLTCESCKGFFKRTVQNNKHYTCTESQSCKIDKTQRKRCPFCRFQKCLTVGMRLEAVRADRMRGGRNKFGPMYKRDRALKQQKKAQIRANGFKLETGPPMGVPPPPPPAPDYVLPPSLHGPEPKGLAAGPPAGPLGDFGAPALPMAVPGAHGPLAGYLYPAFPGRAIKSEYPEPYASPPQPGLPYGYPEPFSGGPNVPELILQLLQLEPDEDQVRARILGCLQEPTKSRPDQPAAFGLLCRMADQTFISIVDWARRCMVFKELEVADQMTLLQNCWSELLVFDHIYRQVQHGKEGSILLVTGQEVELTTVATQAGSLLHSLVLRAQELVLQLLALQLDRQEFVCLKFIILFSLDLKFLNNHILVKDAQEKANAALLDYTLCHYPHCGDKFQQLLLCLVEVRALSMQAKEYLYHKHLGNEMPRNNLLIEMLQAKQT

The target of experiment [8] is Nuclear receptor subfamily 5 group A member 2 (Homo sapiens, UniProt O00482). It is filed as functional, cell-based.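 Note: HEK293T cells transfected with LRH-1 and a StAR promoter luciferase reporter; potency for inhibitors that lower LRH-1 driven reporter light.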
Sequence of Nuclear receptor subfamily 5 group A member 2 (O00482 whole entry): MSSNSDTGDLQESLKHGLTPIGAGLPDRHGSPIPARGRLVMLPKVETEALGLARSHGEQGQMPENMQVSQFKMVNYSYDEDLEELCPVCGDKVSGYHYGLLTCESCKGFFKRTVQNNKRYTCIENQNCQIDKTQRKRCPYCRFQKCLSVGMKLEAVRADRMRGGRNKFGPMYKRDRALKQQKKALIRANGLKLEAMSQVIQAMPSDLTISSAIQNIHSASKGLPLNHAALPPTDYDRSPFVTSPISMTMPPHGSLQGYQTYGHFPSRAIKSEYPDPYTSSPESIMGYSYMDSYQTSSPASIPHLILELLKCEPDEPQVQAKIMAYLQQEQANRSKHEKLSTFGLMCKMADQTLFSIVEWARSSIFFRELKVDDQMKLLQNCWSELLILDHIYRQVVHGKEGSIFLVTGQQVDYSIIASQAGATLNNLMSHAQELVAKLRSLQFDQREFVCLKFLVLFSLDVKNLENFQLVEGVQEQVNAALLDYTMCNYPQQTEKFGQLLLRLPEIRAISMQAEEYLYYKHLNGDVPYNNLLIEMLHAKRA
A short description of experiment [9]: nonselective StAR promoter luciferase inhibitors – cell-based, luminescence, luciferase reporter, counter-screen for LRH-1 inverse agonist project, dose response (AID 651969). It is filed as functional. In general terms: Reporter assays use an easily measured gene product as a stand-in for the process of interest.
A short description of experiment [10]: intracellular Trypanosoma cruzi inhibitors in host cells – cell-based, plate reader, cherry-pick samples, set 3, dose response (AID 651818).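 Note: compounds incubated with infected cells for about four days.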 In kind it is functional.
The next experiment deals with T2, Protein skinhead-1 (Caenorhabditis elegans, UniProt P34707).
T2 sequence (P34707 whole entry): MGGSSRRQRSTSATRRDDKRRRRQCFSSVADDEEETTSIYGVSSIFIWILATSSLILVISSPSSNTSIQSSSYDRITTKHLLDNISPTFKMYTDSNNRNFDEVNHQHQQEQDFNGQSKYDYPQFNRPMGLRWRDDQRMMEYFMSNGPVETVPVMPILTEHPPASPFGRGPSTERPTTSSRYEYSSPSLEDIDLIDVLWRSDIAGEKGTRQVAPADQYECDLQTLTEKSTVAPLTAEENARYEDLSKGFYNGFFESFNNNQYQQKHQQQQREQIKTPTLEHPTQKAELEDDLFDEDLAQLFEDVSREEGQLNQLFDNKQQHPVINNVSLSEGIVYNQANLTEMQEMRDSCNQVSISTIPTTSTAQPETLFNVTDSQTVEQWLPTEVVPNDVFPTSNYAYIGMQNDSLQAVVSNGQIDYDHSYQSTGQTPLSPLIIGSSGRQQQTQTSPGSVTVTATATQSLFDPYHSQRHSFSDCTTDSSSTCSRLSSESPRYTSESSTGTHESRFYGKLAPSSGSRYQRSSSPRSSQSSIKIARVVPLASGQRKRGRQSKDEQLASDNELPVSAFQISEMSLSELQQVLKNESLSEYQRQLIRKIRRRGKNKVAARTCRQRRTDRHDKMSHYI
It is filed as functional.

Another experiment has as its system H4. The experiment in a line: Luminescence Cell-Based Dose Response HTS to Identify Activators of 5'UTR Stem-Loop Driven Prion Protein mRNA Translation in H4 Neuroglioblastoma Cells. [Related pubchem assays: 1829 (Project Summary), 1814 (Primary HTS)]. It is filed as functional. To be noted: Homo sapiens.
A short description of experiment [11]: Luminescence Cell-Based Dose Response HTS to Identify Activators of Luciferase Translation or Activity in H4 […] Cells. [Related pubchem assays: 1829 (Project Summary), 1814 (Primary HTS)]. In kind it is functional.
Experiment [12] is described as follows: NIH3T3 cell viability loss – ATP luminescence, mouse fibroblasts, counter-screen, dose response (AID 2010).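 Note: cells exposed to compound for about 90 hours before reading.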 It is filed as functional, cell-based.
Experiment [13] is described as follows: Trypanosoma cruzi growth suppression in host cells – NIH3T3 host cells, beta-gal luminescence, confirmation (AID 2044).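 Note: intracellular parasites grown in NIH/3T3 mouse fibroblasts as host cells; luminescent beta-galactosidase reporter signal from transgenic T. cruzi replicating inside host cells; inhibitors lower the luminescence signal.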 It is filed as functional, cell-based.
In experiment [14] the target is Luciferin 4-monooxygenase (Photinus pyralis, UniProt P08659). Briefly: inhibition of purified Photinus pyralis luciferase – biochemical, luminescence, dose response (AID 1891).
Sequence of Luciferin 4-monooxygenase (P08659 whole entry): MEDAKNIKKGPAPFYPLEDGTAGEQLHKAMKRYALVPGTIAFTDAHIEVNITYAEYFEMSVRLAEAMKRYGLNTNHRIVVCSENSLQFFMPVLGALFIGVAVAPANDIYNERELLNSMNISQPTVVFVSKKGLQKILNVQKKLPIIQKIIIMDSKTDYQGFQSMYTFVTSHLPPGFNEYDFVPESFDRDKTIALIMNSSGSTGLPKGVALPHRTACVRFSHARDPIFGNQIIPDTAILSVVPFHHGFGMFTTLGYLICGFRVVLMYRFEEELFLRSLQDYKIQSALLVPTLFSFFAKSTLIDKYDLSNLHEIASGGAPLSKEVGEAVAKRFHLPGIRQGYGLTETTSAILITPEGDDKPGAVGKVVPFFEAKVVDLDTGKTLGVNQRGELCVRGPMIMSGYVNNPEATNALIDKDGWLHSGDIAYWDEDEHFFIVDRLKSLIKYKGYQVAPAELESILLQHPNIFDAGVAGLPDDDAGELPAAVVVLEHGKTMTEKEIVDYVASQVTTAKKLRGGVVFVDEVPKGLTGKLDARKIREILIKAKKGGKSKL
Experiment [15] in a line: Luminescence Cell-Based Dose Confirmation HTS to Identify Inhibitors of Platelet Dense Granule Release. [Related pubchem assays: 1663 (Primary HTS), 1678 (Summary of Project)]. It is filed as functional.

Active and inactive are the calls of the source.

Results on 17 compounds are retold here after ChEMBL document CHEMBL1201862, “PubChem BioAssay data set” (2004).

A word on the AC50: it is the concentration giving half of the maximal activity seen. As a reminder, the IC50 is the concentration needed to halve the response being measured. In general, EC50 refers to the concentration that produces a half-maximal response.

Sequence of Mitogen-activated protein kinase 10 (P53779 whole entry): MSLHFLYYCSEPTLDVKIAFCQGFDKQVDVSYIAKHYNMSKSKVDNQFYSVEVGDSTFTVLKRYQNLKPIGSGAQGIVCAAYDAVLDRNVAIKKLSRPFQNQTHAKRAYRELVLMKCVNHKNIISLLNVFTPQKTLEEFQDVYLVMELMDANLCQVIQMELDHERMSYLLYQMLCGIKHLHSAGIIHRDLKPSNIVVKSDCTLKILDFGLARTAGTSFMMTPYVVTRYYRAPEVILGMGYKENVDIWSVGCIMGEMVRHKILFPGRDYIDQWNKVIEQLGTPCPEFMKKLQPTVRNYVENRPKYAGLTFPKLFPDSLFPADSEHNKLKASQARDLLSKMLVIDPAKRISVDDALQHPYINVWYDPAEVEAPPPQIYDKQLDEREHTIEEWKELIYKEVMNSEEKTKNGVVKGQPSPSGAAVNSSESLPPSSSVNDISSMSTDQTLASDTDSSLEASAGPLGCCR

Take `OC(CN1CCCCC1)Cn1c2ccccc2c2cc(Br)ccc21` (stereo not given): the AC50 in experiment [1] is 19 µM (active).

For `CCC1S/C(=C(\C#N)C(N)=O)N(c2ccc(F)cc2)C1=O` (stereo not given), the concentration for half-maximal inhibition (IC50) in [2] is 32.6 µM (not active).

For `COc1ccc(C#Cc2ccc([C@H]3[C@H]4CN(C(=O)c5ccccc5)CC(=O)N4[C@H]3CO)cc2)cc1`, the AC50 was 2.52 µM (active) in experiment [3]; 2.26 µM (active) in experiment [4]; 3.84 µM (active) in experiment [5]; 23.5 µM (active) in [6]; 2.13 µM (active) in experiment [7].

On to `CCc1cc(=O)oc2cc(C)cc(OCC(=O)NC3CC3)c12`, for which the IC50 was 0.359 µM (active) on Steroidogenic factor 1, 0.292 µM (active) in [8] and 35.9 µM (inactive) in [9].

Turning to `Cc1cc(C)c2sc(N(CCCN(C)C)C(=O)CN3C(=O)c4ccccc4C3=O)nc2c1`, in experiment [1], the AC50 was 9.02 µM (active).

As to `C[C@H](CO)N1C[C@H](C)[C@H](CN(C)C(=O)Nc2ccccc2)Oc2ncc(C#Cc3ccc(C(F)(F)F)cc3)cc2C1=O`, the AC50 in experiment [10] is 1.37 µM (active).

On to `CCOC(=O)C1=C(C)OC(N)=C(C#N)C1c1cc2ccccc2nc1N1CCCCC1` (stereo not given), for which the half-inhibitory concentration (IC50) in experiment [2] is > 93.1 µM (not active).

Consider `c1ccc(-n2nc3ccc4c[nH]nc4c3n2)cc1`, for which the concentration for half-maximal inhibition (IC50) in [2] was 43 µM (not active); on Protein skinhead-1, > 100 µM (inactive). Besides, the results for the EC50 (with H4; in experiment [11]) were 0.327 µM (active) and > 120 µM (not active), respectively.

Turning to `Cc1ccccc1Nc1nc(-c2cccnc2)nc2ccccc12`, the IC50 at Steroidogenic factor 1 is 12.6 µM (inactive); in experiment [8] it was 15.5 µM (inactive); in experiment [9] it was 24.9 µM (inactive). In addition, the half-maximal effective concentration (EC50) in [12] is > 60 µM (inconclusive); in [13] it was 0.741 µM (active).

For `Nc1ccc(C(=O)NN2C(=O)[C@H](Cl)C2c2ccc(Cl)cc2)cc1` (stereo not given in full), the results for the IC50 (at Steroidogenic factor 1; in experiment [8]; in [9]) were 11.7 µM (inactive), 11.9 µM (inactive) and 28.8 µM (inactive), respectively.

On to `CCc1cc(=O)oc2c(C)c(OCC(=O)NC3CC(C)(C)NC(C)(C)C3)ccc12`, for which the EC50 in experiment [14] and in experiment [15] was > 112 µM (not active) throughout. The half-maximal inhibitory concentration (IC50) on Steroidogenic factor 1 was 1.82 µM (active); in [8], 35.9 µM (inactive); in experiment [9], 35.9 µM (inactive).

In the case of `OC[C@@H]1[C@@H](c2ccccc2)C2(CN(Cc3ccccc3F)C2)N1Cc1ccccc1F`, the half-maximal activity concentration (AC50) in [4] was 1.65 µM (active); in experiment [5] it was 2.31 µM (active); in experiment [6], 35.8 µM (active); in [7], 1.94 µM (active).

For the compound `CCCc1cc(=O)oc2cc(C)cc(OCC(=O)Nc3ccccn3)c12`, the values for the 50% inhibitory concentration (IC50) (on Steroidogenic factor 1; in experiment [8]; in experiment [9]) were 0.802 µM (active), 3.99 µM (active) and 35.9 µM (inactive), respectively.

For the compound `CO[C@H]1CN(C)C(=O)c2cc(NC(=O)C3CC3)ccc2OC[C@H](C)N(Cc2cc(F)ccc2F)C[C@H]1C`, the AC50 in experiment [3] was 2.14 µM (active); in [4] it was 1.35 µM (active); in experiment [5] it was 4.89 µM (active); in [6] it was 45.2 µM (active); in [7], 1.99 µM (active).

In the case of `C[C@@H]1CN([C@H](C)CO)C(=O)Cc2cc(NC(=O)Nc3ccc(C(F)(F)F)cc3)ccc2O[C@@H]1CN(C)Cc1ccc(C(F)(F)F)cc1`, the concentration at half-maximal activity (AC50) in experiment [10] was 1.19 µM (active).

As to `COc1ccc(C(=O)NCc2cn3c(C)csc3n2)cc1OC`, the IC50 in [2] was > 31 µM (not active).

In the case of `CC1=CC(=C2C(=O)c3ccccc3C2=O)C=C(C)N1Cc1ccco1`, the IC50 in [2] is given as 22.9 µM (not active).
